This assay addresses T1, CETP (Homo sapiens, UniProt P11597).
T1 construct: from tissue; host or cells: human plasma from healthy men
T1 sequence (P11597 18-493): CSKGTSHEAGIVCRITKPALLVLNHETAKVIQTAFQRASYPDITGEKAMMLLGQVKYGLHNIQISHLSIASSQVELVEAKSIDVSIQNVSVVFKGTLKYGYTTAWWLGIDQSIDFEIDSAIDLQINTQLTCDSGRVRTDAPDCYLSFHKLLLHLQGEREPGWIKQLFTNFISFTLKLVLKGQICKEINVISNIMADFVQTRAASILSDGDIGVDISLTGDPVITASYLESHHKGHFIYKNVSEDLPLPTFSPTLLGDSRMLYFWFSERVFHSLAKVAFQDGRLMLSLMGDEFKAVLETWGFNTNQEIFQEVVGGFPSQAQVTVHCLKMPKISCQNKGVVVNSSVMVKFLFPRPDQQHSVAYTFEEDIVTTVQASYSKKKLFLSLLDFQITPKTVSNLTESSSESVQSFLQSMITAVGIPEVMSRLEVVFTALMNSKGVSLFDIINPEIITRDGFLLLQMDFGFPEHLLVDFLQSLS
As to the kind of experiment: Inhibitory activity against CETP in human plasma (Roar CETP activity kit, fluorescence). It counts as biochemical. As to conditions: plasma from healthy men diluted 1:10 in assay buffer, 37° C., 3 hrs, fluorescence 465/535 nm; read-out: IC50, Inhibition of CETP Activity in Human Plasma. As for the experimental part:
A CETP activity kit (#RB-CETP) was purchased from Roar […], Inc. A donor and an acceptor (each, 4 ul), a 10× assay buffer (177 ul), and each of dilutions of test compounds in dimethylsulfoxide (DMSO, Sigma-Aldrich) (0.01 nM˜10000 nM) were added to each well of black round-bottom 96-well plates (Corning #3792). Plasma samples from healthy men were diluted in the assay buffer (1:10=plasma:assay buffer), and added to each well. The plates were sealed with a sealing film (Sigma-Aldrich, #Z369659), and incubated in a 37° C. incubator microplate shaker (#SLST-3, Seolin Bio) for 3 hrs. After removal of the sealing film, fluorescence was read on Spectra Max Gemini EM (Molecular devices) with an excitation wavelength of 465 nm and an emission wavelength of 535 nm. Measurements were calculated according to the following formula. Calculated value=(Fluorescence Intensity with both compound and plasma−Fluorescence Intensity with compound but without plasma)/(Fluorescence Intensity with plasma but without compound−Fluorescence Intensity with neither compound nor plasma)
From the calculated value, a sigmoidal curve (y=start+(end-start)x^n/k^n+x^n) was drawn using Origin Software (OriginLab Corporation, ver. 8.0724) to obtain IC50 values.

Consider `CCN(c1ncc(-c2cccc(C)c2)cc1CN1C(=O)O[C@H](c2cc(C(F)(F)F)cc(C(F)(F)F)c2)[C@@H]1C)C1CCOCC1` [Example 46, (4S,5R)-5-[3,5-bis(trifluoromethyl)phenyl]-4-methyl-3-({[2-(ethyl)(tetrahydro-2H-pyran-4-yl)amino]-5-(3-methylphenyl)pyridin-3-yl}methyl)-oxazolidin-2-one], for which the IC50 – broadly, the concentration at which inhibition is half-maximal – is 0.028 µM. The result for `CCN(C[C@H]1CC[C@H](CC(=O)O)CC1)c1ncc(-c2cccnc2)nc1CN1C(=O)OC(c2cc(C(F)(F)F)cc(C(F)(F)F)c2)[C@@H]1C` (stereo partly shown) [Example 119] reads 0.0782 µM. The result for `CCN(C[C@H]1CC[C@H](CC(=O)O)CC1)c1ncc(-c2sccc2C)nc1CN1C(=O)OC(c2cc(C(F)(F)F)cc(C(F)(F)F)c2)[C@@H]1C` (stereo partly shown) [Example 111] reads 0.00311 µM; that for `CCN(c1ncc(-c2ccc(C#N)s2)cc1CN1C(=O)O[C@@H](c2cc(C(F)(F)F)cc(C(F)(F)F)c2)[C@@H]1C)C1CCCCC1` [Example 71, 5-{5-({(4S,5S)-5-[3,5-bis(trifluoromethyl)phenyl]-4-methyl-2-oxo-oxazolidin-3-yl}methyl)-6-[(cyclohexyl)(ethyl)amino]pyridin-3-yl}-thiophene-2-carbonitrile], 0.0067 µM; that for `CCN(c1ncc(-c2sccc2C)cc1CN1C(=O)O[C@H](c2cc(C(F)(F)F)cc(C(F)(F)F)c2)[C@@H]1C)C1CCCCC1` [Example 78, (4S,5R)-5-[3,5-bis(trifluoromethyl)phenyl]-4-methyl-3-({[2-(ethyl)(cyclohexyl)amino]-5-(3-methyl-thiophen-2-yl)pyridin-3-yl}methyl)-oxazolidin-2-one], 0.0177 µM. Turning to `CCN(c1ncc(-c2ccc(C)s2)cc1CN1C(=O)O[C@H](c2cc(C(F)(F)F)cc(C(F)(F)F)c2)[C@@H]1C)C1CCCCC1` [Example 79, (4S,5R)-5-[3,5-bis(trifluoromethyl)phenyl]-4-methyl-3-({[2-(ethyl)(cyclohexyl)amino]-5-(2-methyl-thiophen-5-yl)pyridin-3-yl}methyl)-oxazolidin-2-one], the IC50 was found to be 0.0243 µM. Take `CCC1CCCN1c1cnc(N(CC)C2CCCCC2)c(CN2C(=O)O[C@H](c3cc(C(F)(F)F)cc(C(F)(F)F)c3)[C@@H]2C)c1` (stereo partly drawn) [Example 90, (4S,5R)-5-[3,5-bis(trifluoromethyl)phenyl]-4-methyl-3-({[2-(ethyl)(cyclohexyl)amino]-5-(2-ethyl-pyrrolidin-1-yl)pyridin-3-yl}methyl)-oxazolidin-2-one]: the IC50 was 0.0118 µM. As for `CCN(c1ncc(-c2c(N)noc2C)cc1CN1C(=O)O[C@H](c2cc(C(F)(F)F)cc(C(F)(F)F)c2)[C@@H]1C)C1CCCCC1` [Example 85, (4S,5R)-5-[3,5-bis(trifluoromethyl)phenyl]-4-methyl-3-({[2-(ethyl)(cyclohexyl)amino]-5-(3-amino-5-methyl-isoxazol-4-yl)pyridin-3-yl}methyl)-oxazolidin-2-one], the IC50 worked out at 0.0319 µM. The result for `CCN(CC1CCCC1)c1ncc(-c2c(C)noc2C)nc1CN1C(=O)O[C@H](c2cc(C(F)(F)F)cc(C(F)(F)F)c2)[C@@H]1C` [Example 101, (4S,5R)-5-[3,5-bis(trifluoromethyl)phenyl]-3-({[3-(cyclopentylmethyl)(ethyl)amino]-4-methyl 6-(3,5-dimethylisoxazol-4-yl)pyrazin-3-yl}methyl)-oxazolidin-2-one] reads 0.00345 µM; that for `CCCN1CCC(N(CC)c2ncc(C(F)(F)F)cc2CN2C(=O)O[C@H](c3cc(C(F)(F)F)cc(C(F)(F)F)c3)[C@@H]2C)CC1` [Example 31], 0.108 µM; that for `CCN(c1ncc(-c2nnnn2C)cc1CN1C(=O)O[C@H](c2cc(C(F)(F)F)cc(C(F)(F)F)c2)[C@@H]1C)C1CCCCC1` [Example 66, (4S,5R)-5-[3,5-bis(trifluoromethyl)phenyl]-4-methyl-3-({[2-(ethyl)(cyclohexyl)amino]-5-(1-methyl-1H-tetrazol-5-yl)pyridin-3-yl}methyl)-oxazolidin-2-one], 0.0463 µM. The same measure for `CCN(c1ncc(Br)cc1CN1C(=O)O[C@H](c2cc(C(F)(F)F)cc(C(F)(F)F)c2)[C@@H]1C)C1CCOCC1` [Example 40, (4S,5R)-5-[3,5-bis(trifluoromethyl)phenyl]-4-methyl-3-({[2-(ethyl)(tetrahydro-2H-pyran-4-yl)amino]-5-bromopyridin-3-yl}methyl)-oxazolidin-2-one]: 0.0198 µM; for `CCN(c1ncc(C(F)(F)F)cc1CN1C(=O)O[C@H](c2cc(C(F)(F)F)cc(C(F)(F)F)c2)[C@@H]1C)C1CCN(C(C)=O)CC1` [Example 33, (4S,5R)-5-[3,5-bis(trifluoromethyl)phenyl]-4-methyl-3-({[2-(ethyl)(1-acetylpiperidin-4-yl)amino]-5-(trifluoromethyl)pyridin-3-yl}methyl)-oxazolidin-2-one]: 0.0399 µM; for `CCN(c1ncccc1CN1C(=O)O[C@H](c2cc(C(F)(F)F)cc(C(F)(F)F)c2)[C@@H]1C)C1CCOCC1` [Example 52, (4S,5R)-5-[3,5-bis(trifluoromethyl)phenyl]-4-methyl-3-({[2-(ethyl)(tetrahydro-2H-pyran-4-yl)amino]-pyridin-3-yl}methyl)-oxazolidin-2-one]: 0.0734 µM. The result for `CCOC(=O)N1CCC(N(CC)c2ncc(C(F)(F)F)cc2CN2C(=O)O[C@H](c3cc(C(F)(F)F)cc(C(F)(F)F)c3)[C@@H]2C)CC1` [Example 36, ethyl 4-{[3-({(4S,5R)-5-[3,5-bis(trifluoromethyl)phenyl]-4-methyl-2-oxo-oxazolidin-3-yl}methyl)-5-(trifluoromethyl)pyridin-2-yl](ethyl)amino}piperidine-1-carboxylate] reads 0.22 µM.

Take `CCN(c1ncc(-c2cn[nH]c2)cc1CN1C(=O)O[C@H](c2cc(C(F)(F)F)cc(C(F)(F)F)c2)[C@@H]1C)C1CCCCC1` [Example 68, (4S,5R)-5-[3,5-bis(trifluoromethyl)phenyl]-4-methyl-3-({[2-(ethyl)(cyclohexyl)amino]-5-(1H-pyrazol-4-yl)pyridin-3-yl}methyl)-oxazolidin-2-one]: the IC50 came out at 0.334 µM. The same measure for `CCN(c1ncc(-c2ccco2)cc1CN1C(=O)O[C@H](c2cc(C(F)(F)F)cc(C(F)(F)F)c2)[C@@H]1C)C1CCOCC1` [Example 49, (4S,5R)-5-[3,5-bis(trifluoromethyl)phenyl]-4-methyl-3-({[2-(ethyl)(tetrahydro-2H-pyran-4-yl)amino]-5-(furan-2-yl)pyridin-3-yl}methyl)-oxazolidin-2-one]: 0.0237 µM; for `CCN(c1ncc(-c2cc(C(F)(F)F)nn2C)cc1CN1C(=O)O[C@H](c2cc(C(F)(F)F)cc(C(F)(F)F)c2)[C@@H]1C)C1CCCCC1` [Example 60, (4S,5R)-5-[3,5-bis(trifluoromethyl)phenyl]-4-methyl-3-({[2-(ethyl)(cyclohexyl-4-yl)amino]-5-(1-methyl-1H-3-(trifluoromethyl)-pyrazol-5-yl)pyridin-3-yl}methyl)-oxazolidin-2-one]: 0.0347 µM.

In the case of `CCN(C[C@H]1CC[C@H](CC(=O)O)CC1)c1ncc(-c2c(C)noc2C)nc1CN1C(=O)OC(c2cc(C(F)(F)F)cc(C(F)(F)F)c2)[C@@H]1C` (stereo partly shown) [Example 102], the IC50 worked out at 0.00065 µM.

Source of the values: patent US9533977B2, “Oxazolidinone derivative as CETP inhibitor, its preparation method, and pharmaceutical composition comprising the same” (DONG-A ST CO., LTD., priority 2013, dated 2017).
